Test results: US9296722B2, “Azolyl urea compounds and methods of use thereof” (Ambit Biosciences Corporation, priority 2010, dated 2016)

What was measured:
[1] = molecular target: kinase panel containing either 359 or 386 distinct kinases; test: Competition binding assay, selectivity score (S10) against a panel of kinases; settings: compounds at 10 μM; fraction of kinases with percent of control less than 10
Procedure: Competition binding assays used herein were developed, validated and performed as described in Fabian et al., Nature Biotechnology 2005, 23, 329-336. Kinases were produced as fusions to T7 phage (See, Fabian et al. or WO04/015142) or alternatively, the kinases were expressed in HEK-293 cells and subsequently tagged with DNA for PCR detection (See, WO08/005,310). […] The liganded beads were blocked with excess biotin and washed with blocking buffer (SeaBlock (Pierce), 1% BSA, 0.05% Tween 20, 1 mM DTT) to remove unbound ligand and to reduce non-specific binding. […] Test compounds were prepared as 100× stocks in DMSO and diluted into the aqueous environment. Kds were determined using an eleven point threefold serial dilutions. DMSO or control compounds were was added to control assays lacking a test compound. Primary screen assays were performed in polypropylene 384-well plates in a final volume of 20-40 μL, while Kd determinations were performed in polystyrene 96-well plates in a final volume of […]. […] The kinase concentration in the eluates was measured by quantitative PCR.
A selectivity score (S10) is a quantitative measure of selectivity of a compound against a panel of kinases. An S10 was calculated for a compound by dividing the number of kinases found to have a percent of control (DMSO) less than 10 by the total number of distinct kinases tested (excluding mutant variants). Percent of control (POC) is calculated by subtracting the signal of the control compound
(POC=0) from the signal of the test compound and dividing the outcome by the signal of DMSO (POC=100) minus the signal of the control compound. For the compounds disclosed herein, S10 scores were obtained by testing the compounds at 10 μM concentration in a kinase panel containing either 359 or 386 distinct kinases.

CSF1R (human) = molecular target: T1, CSF1R (human) (Homo sapiens, UniProt P07333); test: Competition binding assay, CSF1R (human) Kd
T1 construct: made in house; host or cells: T7 phage display or HEK-293 cells (alternatives, not resolved per kinase)
T1 sequence (P07333 20-972): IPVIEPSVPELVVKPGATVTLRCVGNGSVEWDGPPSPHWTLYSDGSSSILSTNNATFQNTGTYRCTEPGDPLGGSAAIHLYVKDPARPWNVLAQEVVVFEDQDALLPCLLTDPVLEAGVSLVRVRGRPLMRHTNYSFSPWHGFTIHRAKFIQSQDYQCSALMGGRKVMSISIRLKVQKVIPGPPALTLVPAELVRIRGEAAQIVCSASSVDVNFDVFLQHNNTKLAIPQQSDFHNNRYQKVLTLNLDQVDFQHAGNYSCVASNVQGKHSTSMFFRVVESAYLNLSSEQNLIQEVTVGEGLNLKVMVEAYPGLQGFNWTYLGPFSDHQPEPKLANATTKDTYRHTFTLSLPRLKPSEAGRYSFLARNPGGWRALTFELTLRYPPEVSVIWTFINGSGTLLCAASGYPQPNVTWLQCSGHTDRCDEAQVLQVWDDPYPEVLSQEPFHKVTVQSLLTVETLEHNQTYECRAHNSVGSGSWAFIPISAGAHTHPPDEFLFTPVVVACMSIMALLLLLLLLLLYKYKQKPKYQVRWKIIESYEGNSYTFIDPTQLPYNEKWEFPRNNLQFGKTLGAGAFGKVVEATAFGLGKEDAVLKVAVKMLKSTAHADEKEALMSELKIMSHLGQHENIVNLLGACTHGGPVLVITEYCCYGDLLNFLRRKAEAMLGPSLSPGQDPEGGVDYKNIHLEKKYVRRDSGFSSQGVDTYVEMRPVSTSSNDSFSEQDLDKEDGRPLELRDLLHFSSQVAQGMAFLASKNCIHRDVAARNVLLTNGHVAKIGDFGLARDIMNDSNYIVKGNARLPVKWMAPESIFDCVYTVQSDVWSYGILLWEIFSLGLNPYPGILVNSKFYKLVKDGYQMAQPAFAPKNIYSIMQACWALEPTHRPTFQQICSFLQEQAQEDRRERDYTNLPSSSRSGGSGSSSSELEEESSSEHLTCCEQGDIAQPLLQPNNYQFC
Procedure: The liganded beads were blocked with excess biotin and washed with blocking buffer (SeaBlock (Pierce), 1% BSA, 0.05% Tween 20, 1 mM DTT) to remove unbound ligand and to reduce non-specific binding. […] Test compounds were prepared as 100× stocks in DMSO and diluted into the aqueous environment. Kds were determined using an eleven point threefold serial dilutions. DMSO or control compounds were was added to control assays lacking a test compound. […] The kinase concentration in the eluates was measured by quantitative PCR.

M-NFS-60 cells = test: M-NFS-60 cell proliferation assay; assay type: cell-based, mouse; settings: Mus musculus; 72 hours incubation, Alamar Blue, M-CSF-dependent cells; read-out: CSF1R Cell Proliferation (M-NFS-60) IC50
Procedure: In certain embodiments, the compounds disclosed herein are tested in an M-NFS-60 cell proliferation assay to determine their cellular potency against CSF-1R. M-NFS-60s are mouse monocytic cells that depend on the binding of the ligand M-CSF to its receptor, CSF-1R, to proliferate Inhibition of CSF-1R kinase activity will cause reduced growth and/or cell death. This assay assesses the potency of compounds as CSF-1R inhibitors by measuring the reduction of Alamar Blue reagent by viable cells. An exemplary assay is described in the Examples section.
The compounds disclosed herein were tested in an M-NFS-60 cell proliferation assay to determine their cellular potency against CSF1R. M-NFS-60s are mouse monocytic cells that depend on the binding of the ligand M-CSF to its receptor, CSF1R, to proliferate Inhibition of CSF1R kinase activity will cause reduced growth and/or cell death. This assay assesses the potency of compounds as CSF1R inhibitors by measuring the reduction of Alamar Blue reagent by viable cells.
On day one of the experiment, M-NFS-60 cells were maintained in RPMI complete medium (Omega Scientific) plus 10% FBS supplemented with 20 ng/mL of M-CSF (R&D Systems). 96-well TC-treated, flat bottom plates were seeded at 10,000 cell/well at a volume of 100 μL per well. The cells were cultured overnight at 37° C. under 5% CO2.
On day two, compounds were added to the cells at 9 different concentrations, with half-log intervals alongside a control reference compound serving as a positive control. Final DMSO concentration was kept at 0.5% for a final volume of 200 μL. The compounds were allowed to incubate with the cells for 72 hours at 37° C. under 5% CO2.
On day five of the experiment, 40 μl of Alamar Blue reagent was added to each well and allowed to incubate for 3 hours. Alamar Blue fluorescence was read using SoftMax Pro software at 560 nm (excitation) and 590 nm (emission). IC50s were generated as an average of duplicates and represents the concentration of test compound that achieves 50% inhibition of cellular proliferation compared to control.

| SMILES | Kinase Specificity (S10) [1] | Kd (CSF1R (human)) [nM] | IC50 (M-NFS-60 cells) [nM] |
| --- | --- | --- | --- |
| CC(C)(C)c1cc(NC(=O)Nc2ccc(NC(=O)c3cc(OC4CCNCC4)ccn3)cc2)no1 | B (0.03 < B ≦ 0.05) | – | – |
| CCN1CCC(Oc2ccnc(C(=O)Nc3ccc(NC(=O)Nc4cc(C(C)(C)C)on4)cc3)c2)CC1 | B (0.03 < B ≦ 0.05) | – | – |
| CC(C)(C)c1cc(NC(=O)Nc2ccc(NC(=O)c3ccc(OC4CCNCC4)cn3)cc2)no1 | C (C > 0.05) | – | – |
| CCN1CCC(Oc2ccc(C(=O)Nc3ccc(NC(=O)Nc4cc(C(C)(C)C)on4)cc3)nc2)CC1 | C (C > 0.05) | – | – |
| CCN1CCC(Cc2ccc(C(=O)Nc3ccc(NC(=O)Nc4cc(C(C)(C)C)on4)cc3)nc2)CC1 | B (0.03 < B ≦ 0.05) | – | – |
| CCN1CCC(c2ccc(C(=O)Nc3ccc(NC(=O)Nc4cc(C(C)(C)C)on4)cc3)nc2)CC1 | B (0.03 < B ≦ 0.05) | – | – |
| CN1CCN(Cc2ccc(C(=O)Nc3ccc(NC(=O)Nc4cc(C(C)(C)C)on4)cc3)nc2)CC1 | A (A ≦ 0.03) | – | – |
| CC(C)(C)c1cc(NC(=O)Nc2ccc(NC(=O)c3ccc(OC4CCN(CC(F)(F)F)CC4)cn3)cc2)no1 | A (A ≦ 0.03) | – | – |
| CCN1CC(Oc2ccc(C(=O)Nc3ccc(NC(=O)Nc4cc(C(C)(C)C)on4)cc3)nc2)C1 | B (0.03 < B ≦ 0.05) | < 3 | 100 to 250 |
| CC(C)N1CC(Oc2ccc(C(=O)Nc3ccc(NC(=O)Nc4cc(C(C)(C)C)on4)cc3)nc2)C1 | B (0.03 < B ≦ 0.05) | < 3 | ≤ 100 |
| CC(C)(C)c1cc(NC(=O)Nc2ccc(NC(=O)c3ccc(OC4CN(C5COC5)C4)cn3)cc2)no1 | C (C > 0.05) | < 3 | ≤ 100 |
| CC(C)N1CCC(Oc2ccc(C(=O)Nc3ccc(NC(=O)Nc4cc(C(C)(C)C)on4)cc3)nc2)C1 (stereo not shown) | B (0.03 < B ≦ 0.05) | < 3 | ≤ 100 |
| CCN1CCC(Oc2ccc(C(=O)Nc3ccc(NC(=O)Nc4cc(C(C)(C)C)on4)cc3)nc2)C1 (stereo not shown) | B (0.03 < B ≦ 0.05) | < 3 | ≤ 100 |
| CC(C)N1CCC(Oc2ccc(C(=O)Nc3ccc(NC(=O)Nc4cc(C(C)(C)C)on4)cc3)nc2)CC1 | B (0.03 < B ≦ 0.05) | – | – |
| CC(C)(C)c1cc(NC(=O)Nc2ccc(NC(=O)c3ccc(OC4CCN(C5COC5)C4)cn3)cc2)no1 (stereo not shown) | B (0.03 < B ≦ 0.05) | < 3 | ≤ 100 |
| CN1C(C)(C)CC(Oc2ccc(C(=O)Nc3ccc(NC(=O)Nc4cc(C(C)(C)C)on4)cc3)nc2)CC1(C)C | C (C > 0.05) | – | – |
| CC(C)(C)c1cc(NC(=O)Nc2ccc(NC(=O)c3ccc(OC4CCN(C5CC5)CC4)cn3)cc2)no1 | A (A ≦ 0.03) | – | – |
| CC(C)(C)c1cc(NC(=O)Nc2ccc(NC(=O)c3ccc(OC4CCN(C(C)(C)C)CC4)cn3)cc2)no1 | B (0.03 < B ≦ 0.05) | – | – |
| CN1C(C)(C)CC(Oc2ccc(C(=O)Nc3ccc(NC(=O)Nc4cc(C(C)(CF)CF)on4)cc3)nc2)CC1(C)C | B (0.03 < B ≦ 0.05) | < 3 | ≤ 100 |

| SMILES | Kinase Specificity (S10) [1] | Kd (CSF1R (human)) [nM] | IC50 (M-NFS-60 cells) [nM] |
| --- | --- | --- | --- |
| CN1C(C)(C)CC(Oc2ccc(C(=O)Nc3ccc(NC(=O)Nc4cc(C(C)(C)C(F)(F)F)on4)cc3)nc2)CC1(C)C | B (0.03 < B ≦ 0.05) | 3 to 10 | ≤ 100 |
| CN1C(COc2ccc(C(=O)Nc3ccc(NC(=O)Nc4cc(C(C)(C)C)on4)cc3)nc2)CCC1(C)C (stereo not shown) | B (0.03 < B ≦ 0.05) | 3 to 10 | ≤ 100 |
| CCN1C(C)(C)CC(Oc2ccc(C(=O)Nc3ccc(NC(=O)Nc4cc(C(C)(C)C)on4)cc3)nc2)CC1(C)C | A (A ≦ 0.03) | < 3 | ≤ 100 |
| CN1C(C)(C)CC(Oc2ccc(C(=O)Nc3ccc(NC(=O)Nc4cc(C(C)(C)C)no4)cc3)nc2)CC1(C)C | B (0.03 < B ≦ 0.05) | 3 to 10 | ≤ 100 |
| CC(C)N1CCC(Oc2ccc(C(=O)Nc3ccc(NC(=O)Nc4cc(C(C)(C)C)no4)cc3)nc2)CC1 | B (0.03 < B ≦ 0.05) | 3 to 10 | ≤ 100 |
| CC(C)N1CC[C@@H](COc2ccc(C(=O)Nc3ccc(NC(=O)Nc4cc(C(C)(C)C)on4)cc3)nc2)C1 | C (C > 0.05) | < 3 | ≤ 100 |
| CCN1C(C)(C)CC(Oc2ccc(C(=O)Nc3ccc(NC(=O)Nc4cc(C(C)(C)C)no4)cc3)nc2)CC1(C)C | B (0.03 < B ≦ 0.05) | > 10 | ≤ 100 |
| CCN1CCC(Oc2ccc(C(=O)Nc3ccc(NC(=O)Nc4cc(C(C)(C)C)no4)cc3)nc2)CC1 | B (0.03 < B ≦ 0.05) | 3 to 10 | ≤ 100 |
| CCN1CC[C@@H](COc2ccc(C(=O)Nc3ccc(NC(=O)Nc4cc(C(C)(C)C)on4)cc3)nc2)C1 | C (C > 0.05) | > 10 | ≤ 100 |
| CN1C(C)(C)CC(=O)C(c2ccc(C(=O)Nc3ccc(NC(=O)Nc4cc(C(C)(C)C)on4)cc3)nc2)C1(C)C (stereo not shown) | A (A ≦ 0.03) | < 3 | 100 to 250 |
| CN1C(C)(C)CC(C)(Oc2ccc(C(=O)Nc3ccc(NC(=O)Nc4cc(C(C)(C)C)on4)cc3)nc2)CC1(C)C | C (C > 0.05) | < 3 | ≤ 100 |
| CC(C)(C)c1cc(NC(=O)Nc2ccc(NC(=O)c3ccc(OC4CN5CCC4CC5)cn3)cc2)no1 (stereo not shown) | C (C > 0.05) | < 3 | ≤ 100 |
| CC(C)(C)c1cc(NC(=O)Nc2ccc(NC(=O)c3ccc(OC[C@H]4CCCN5CCCC[C@@H]45)cn3)cc2)no1 | C (C > 0.05) | < 3 | ≤ 100 |
| CN1C(C)(C)CC(Oc2ccc(C(=O)Nc3ccc(NC(=O)Nc4cc(C(C)(C)C)nn4C)cc3)nc2)CC1(C)C | B (0.03 < B ≦ 0.05) | 3 to 10 | 100 to 250 |
| CN1C(C)(C)CC(Oc2ccc(C(=O)Nc3ccc(NC(=O)Nc4cc(C(F)(F)F)n(C)n4)cc3)nc2)CC1(C)C | C (C > 0.05) | < 3 | 250 to 1000 |
| CN1C(C)(C)CC(Oc2ccc(C(=O)Nc3cccc(CNC(=O)Nc4cc(C(C)(C)C)on4)c3)nc2)CC1(C)C | C (C > 0.05) | > 10 | > 1000 |
| CC1(C)CC(Oc2ccc(C(=O)Nc3ccc(NC(=O)Nc4cc(C(C)(C)C)on4)cc3)nc2)CC(C)(C)N1 | C (C > 0.05) | – | – |
| CN1C(C)(C)CC(Oc2ccc(C(=O)Nc3ccc(NC(=O)Nc4cc(C(C)(C)C)on4)cc3)nn2)CC1(C)C | C (C > 0.05) | < 3 | 250 to 1000 |
| CN1C(C)(C)CC(Oc2cnc(C(=O)Nc3ccc(NC(=O)Nc4cc(C(C)(C)C)on4)cc3)cn2)CC1(C)C | B (0.03 < B ≦ 0.05) | 3 to 10 | 100 to 250 |
